Measurements taken from the CheMixHub viscosity set.

Experiment: xn = mol fraction of the nth substance listed

C=CC#N + CC(=O)N(C)C
303.15 K, 101.3 kPa
Conditions | viscosity [mPa·s]
x1 = 0.0998 | 0.8246
x1 = 0.1982 | 0.7637
x1 = 0.297 | 0.7048
x1 = 0.3941 | 0.6449
x1 = 0.5009 | 0.5797
x1 = 0.5995 | 0.5228
x1 = 0.6984 | 0.4682
x1 = 0.7976 | 0.4132
x1 = 0.9005 | 0.3591

CN(C)c1ccccc1 + CC(=O)O
viscosity [mPa·s], 101 kPa
Conditions | x2 = 0.1008 | x2 = 0.201 | x2 = 0.3424 | x2 = 0.3973 | x2 = 0.4957 | x2 = 0.5978 | x2 = 0.7002 | x2 = 0.7928 | x2 = 0.8476 | x2 = 0.9025
298.15 K | 1.363 | 1.448 | 1.644 | 1.757 | 2.04 | 2.547 | 3.352 | 4.244 | 4.514 | 3.819
318.15 K | 0.9835 | 1.02 | 1.106 | 1.16 | 1.281 | 1.488 | 1.831 | 2.192 | 2.327 | 2.085

C=CC#N + CC(=O)c1ccccc1
308.15 K, 101 kPa
Conditions | viscosity [mPa·s]
x2 = 0.0582 | 0.3608
x2 = 0.1109 | 0.3946
x2 = 0.1957 | 0.4532
x2 = 0.2736 | 0.5132
x2 = 0.3939 | 0.62
x2 = 0.4591 | 0.676
x2 = 0.5681 | 0.7844
x2 = 0.6945 | 0.9222
x2 = 0.7954 | 1.052

CN(C)c1ccccc1 + CC(=O)c1ccccc1
viscosity [mPa·s], 101 kPa
Conditions | 303.15 K | 308.15 K
x1 = 0.0856 | 1.505 | 1.398
x1 = 0.1502 | 1.495 | 1.387
x1 = 0.2141 | 1.48 | 1.376
x1 = 0.2852 | 1.461 | 1.361
x1 = 0.3521 | 1.442 | 1.346
x1 = 0.4201 | 1.42 | 1.328
x1 = 0.5026 | 1.392 | 1.305
x1 = 0.5892 | 1.362 | 1.279
x1 = 0.6625 | 1.335 | 1.254
x1 = 0.7211 | 1.313 | 1.234
x1 = 0.7908 | 1.284 | 1.207
x1 = 0.8625 | 1.253 | 1.177
x1 = 0.9204 | 1.222 | 1.151

CC(C)(C)Br + CC(C)(C)O
viscosity [mPa·s], 101.3 kPa
Conditions | x1 = 0.1003 | x1 = 0.2034 | x1 = 0.3015 | x1 = 0.4024 | x1 = 0.5028 | x1 = 0.6049 | x1 = 0.705 | x1 = 0.7981 | x1 = 0.8958
298.15 K | 2.648 | 1.858 | 1.458 | 1.208 | 1.026 | 0.9136 | 0.8363 | 0.7868 | 0.7483
313.15 K | 1.504 | 1.165 | 0.9832 | 0.8491 | 0.7568 | 0.6855 | 0.6408 | 0.6119 | 0.595

CCCCN(CCCC)CCCC + CC(C)(C)O
viscosity [mPa·s], 101 kPa
Conditions | x2 = 0.0998 | x2 = 0.2 | x2 = 0.3 | x2 = 0.4 | x2 = 0.5001 | x2 = 0.5999 | x2 = 0.7 | x2 = 0.8 | x2 = 0.9006 | x2 = 0.9503
303.15 K | 1.189 | 1.202 | 1.267 | 1.324 | 1.394 | 1.499 | 1.637 | 1.878 | 2.323 | 2.732
308.15 K | 1.083 | 1.108 | 1.145 | 1.189 | 1.242 | 1.323 | 1.43 | 1.598 | 1.91 | 2.204
313.15 K | 0.9915 | 1.009 | 1.037 | 1.072 | 1.112 | 1.172 | 1.251 | 1.376 | 1.599 | 1.809
318.15 K | 0.9113 | 0.9236 | 0.9451 | 0.9707 | 1.003 | 1.048 | 1.104 | 1.197 | 1.356 | 1.514
323.15 K | 0.8405 | 0.8479 | 0.8641 | 0.8824 | 0.908 | 0.9401 | 0.9817 | 1.051 | 1.166 | 1.288

CN(C)c1ccccc1 + CC(C)(C)O
303.15 K, 101 kPa
Conditions | viscosity [mPa·s]
x1 = 0.0534 | 3.315
x1 = 0.1054 | 3.242
x1 = 0.1689 | 3.141
x1 = 0.2256 | 3.041
x1 = 0.2958 | 2.907
x1 = 0.3612 | 2.775
x1 = 0.4502 | 2.587
x1 = 0.5246 | 2.423
x1 = 0.6589 | 2.112
x1 = 0.7421 | 1.908
x1 = 0.8046 | 1.747
x1 = 0.8645 | 1.584
x1 = 0.9472 | 1.34

CN(C)c1ccccc1 + CC(C)=O
viscosity [mPa·s], 101 kPa
Conditions | 303.15 K | 308.15 K
x1 = 0.0782 | 0.409 | 0.374
x1 = 0.1356 | 0.494 | 0.448
x1 = 0.1965 | 0.584 | 0.535
x1 = 0.2551 | 0.668 | 0.614
x1 = 0.3205 | 0.757 | 0.698
x1 = 0.3921 | 0.844 | 0.781
x1 = 0.4724 | 0.925 | 0.857
x1 = 0.5558 | 0.992 | 0.921
x1 = 0.6214 | 1.033 | 0.958
x1 = 0.7086 | 1.072 | 0.995
x1 = 0.7784 | 1.095 | 1.018
x1 = 0.8565 | 1.118 | 1.046
x1 = 0.9221 | 1.138 | 1.069

CCCCN(CCCC)CCCC + CC(C)CC(C)(C)C
viscosity [mPa·s], 101 kPa
Conditions | x1 = 0.1106 | x1 = 0.2474 | x1 = 0.3947 | x1 = 0.4958 | x1 = 0.5982 | x1 = 0.793 | x1 = 0.8938
303.15 K | 0.505 | 0.5839 | 0.6783 | 0.7486 | 0.8256 | 0.9844 | 1.072
313.15 K | 0.4465 | 0.5109 | 0.5884 | 0.6462 | 0.7101 | 0.8423 | 0.9171

CC(=O)CC(C)=O + CC(C)CCO
298.15 K, 101 kPa
Conditions | viscosity [mPa·s]
x1 = 0.1 | 2.622
x1 = 0.2 | 1.997
x1 = 0.3 | 1.558
x1 = 0.4 | 1.26
x1 = 0.5 | 1.063
x1 = 0.6 | 0.933
x1 = 0.7 | 0.844
x1 = 0.8 | 0.778
x1 = 0.9 | 0.729

CC(C)(C)Br + CC(C)CO
viscosity [mPa·s], 101.3 kPa
Conditions | x1 = 0.1028 | x1 = 0.2047 | x1 = 0.3013 | x1 = 0.4041 | x1 = 0.5068 | x1 = 0.6029 | x1 = 0.7033 | x1 = 0.8031 | x1 = 0.905
298.15 K | 2.582 | 2.021 | 1.64 | 1.351 | 1.138 | 0.9943 | 0.8866 | 0.8146 | 0.757
313.15 K | 1.718 | 1.405 | 1.168 | 0.9825 | 0.8486 | 0.7553 | 0.688 | 0.6382 | 0.6044

CN(C)c1ccccc1 + CC(C)CO
303.15 K, 101 kPa
Conditions | viscosity [mPa·s]
x1 = 0.0545 | 2.804
x1 = 0.1056 | 2.755
x1 = 0.1875 | 2.663
x1 = 0.2546 | 2.576
x1 = 0.3526 | 2.434
x1 = 0.4278 | 2.316
x1 = 0.5047 | 2.189
x1 = 0.5869 | 2.044
x1 = 0.6514 | 1.926
x1 = 0.7348 | 1.767
x1 = 0.8025 | 1.628
x1 = 0.8621 | 1.501
x1 = 0.9285 | 1.345
